PMC5678437, “A new antagonist for CCR4 attenuates allergic lung inflammation in a mouse model of asthma” (Scientific Reports, 2017)

Legend:
Assay type in all cases: cell-based
CXCR3 = biological target: T1, CXCR3 (Homo sapiens, UniProt P49682); experiment: Chemotaxis inhibition assay for receptor specificity, HEK293-CXCR3; settings: 0.2, 1, 5, 25 μM, 30 min pretreatment
T1 construct: expressed in transfected cells; host or cells: HEK293; plasmid from Chinese National Human Genome Center
T1 sequence (P49682 1-415 isoform P49682-2): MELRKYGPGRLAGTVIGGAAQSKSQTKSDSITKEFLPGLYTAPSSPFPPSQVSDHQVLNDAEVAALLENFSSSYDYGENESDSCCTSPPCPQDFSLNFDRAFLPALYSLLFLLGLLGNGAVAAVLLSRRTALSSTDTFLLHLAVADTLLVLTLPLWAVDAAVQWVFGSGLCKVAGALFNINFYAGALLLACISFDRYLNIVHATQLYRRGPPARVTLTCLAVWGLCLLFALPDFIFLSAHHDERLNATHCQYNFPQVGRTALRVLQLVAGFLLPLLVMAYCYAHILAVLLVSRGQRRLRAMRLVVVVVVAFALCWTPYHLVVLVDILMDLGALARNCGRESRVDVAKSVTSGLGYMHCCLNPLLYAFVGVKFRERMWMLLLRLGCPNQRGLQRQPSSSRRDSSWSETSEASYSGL
Method: (§1) HEK293 cells were transfected with different chemokine receptors. The corresponding chemokines of different receptors were placed in the lower chambers. The transfected cells were pretreated with different concentrations of Compound 8a or 1‰ DMSO for 30 min at a density of 1 × 10^6 cells/ml and added to the upper chambers, the final concentration of the compound is: 0.2 μM, 1 μM, 5 μM, and 25 μM, respectively.

CCR1 = biological target: T2, CCR1 (Homo sapiens, UniProt P32246); experiment: Chemotaxis inhibition assay for receptor specificity, HEK293-CCR1; settings: 0.2, 1, 5, 25 μM, 30 min pretreatment
T2 construct: expressed in transfected cells; host or cells: HEK293; plasmid gift of Dr. Philip M. Murphy (NIAID, NIH)
T2 sequence (P32246 1-355): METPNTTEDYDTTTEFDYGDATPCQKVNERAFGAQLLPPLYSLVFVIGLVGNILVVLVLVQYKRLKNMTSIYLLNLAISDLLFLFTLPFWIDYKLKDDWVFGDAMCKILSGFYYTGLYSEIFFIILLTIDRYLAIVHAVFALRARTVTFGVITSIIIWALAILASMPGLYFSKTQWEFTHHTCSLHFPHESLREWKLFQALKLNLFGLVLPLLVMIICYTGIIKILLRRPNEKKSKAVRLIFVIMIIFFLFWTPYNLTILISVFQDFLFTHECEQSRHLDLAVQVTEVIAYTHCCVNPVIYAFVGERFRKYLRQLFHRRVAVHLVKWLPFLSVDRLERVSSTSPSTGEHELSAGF
Method: as §1

CXCR1 = biological target: T3, CXCR1 (Homo sapiens, UniProt P25024); experiment: Chemotaxis assay for receptor specificity, HEK293-CXCR1; settings: compound as chemoattractant in lower chamber, 0.2, 1, 5, 25 μM
T3 construct: expressed in transfected cells; host or cells: HEK293; plasmid gift of Dr. Philip M. Murphy (NIAID, NIH)
T3 sequence (P25024 1-350): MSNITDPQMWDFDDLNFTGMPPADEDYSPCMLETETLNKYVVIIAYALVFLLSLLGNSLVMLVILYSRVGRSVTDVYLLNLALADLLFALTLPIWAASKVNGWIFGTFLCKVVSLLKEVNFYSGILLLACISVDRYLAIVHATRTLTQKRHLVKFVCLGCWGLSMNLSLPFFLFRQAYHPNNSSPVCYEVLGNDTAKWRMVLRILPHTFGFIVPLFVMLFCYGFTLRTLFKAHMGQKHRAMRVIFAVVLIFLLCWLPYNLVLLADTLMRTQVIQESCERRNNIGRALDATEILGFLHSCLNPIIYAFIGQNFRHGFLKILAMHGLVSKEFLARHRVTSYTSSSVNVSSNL
Method: (§2) HEK293 cells were transfected with different chemokine receptors. Compound 8a with DMSO was diluted to 0.2 mM, 1 mM, 5 mM and 25 mM, and then we used RPMI 1640 medium containing 0.1% BSA for dilution. The final concentration is: 0.2 μM, 1 μM, 5 μM and 25 μM. DMSO was also diluted 1000-fold with 0.1% BSA RPMI 1640 medium. Chemokines was also diluted to an appropriate concentration. The dilutions of Compound 8a, 1‰ DMSO, the corresponding chemokines of different receptors and 0.1% BSA RPMI 1640 medium were placed in the lower chambers (27.5 μl/well). The transfected HEK293 cells were resuspended in the same medium at a density of 1 × 10^6 cells/ml and added to the upper chambers (55 μl/well).

CCR3 = biological target: T4, CCR3 (Homo sapiens, UniProt P51677); experiment: Chemotaxis assay for receptor specificity, HEK293-CCR3; settings: compound as chemoattractant in lower chamber, 0.2, 1, 5, 25 μM
T4 sequence (P51677 1-355): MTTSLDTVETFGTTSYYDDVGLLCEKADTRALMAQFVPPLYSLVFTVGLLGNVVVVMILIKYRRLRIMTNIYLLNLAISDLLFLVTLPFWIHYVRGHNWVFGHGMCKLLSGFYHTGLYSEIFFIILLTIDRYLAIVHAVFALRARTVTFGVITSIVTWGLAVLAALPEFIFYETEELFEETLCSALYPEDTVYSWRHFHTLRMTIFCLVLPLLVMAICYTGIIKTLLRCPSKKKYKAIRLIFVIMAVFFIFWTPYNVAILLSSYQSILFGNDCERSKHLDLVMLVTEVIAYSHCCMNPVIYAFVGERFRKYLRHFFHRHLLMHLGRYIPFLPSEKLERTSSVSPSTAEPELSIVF
Method: as §2

HEK293-CCR4 cells = experiment: MTT assay; settings: 1, 2, 4, 8, 16 μM, till the higher concentration (16 μM), 48 h
Method: pcDI-CCR4-transfected HEK293 cells, at the density of 800 cells /well, were plated overnight in 96-well plates. After plated overnight, different concentrations of compound 22 and compound 8a were added in cells and the final concentrations of these two compounds were: 1 μM, 2 μM, 4 μM, 8 μM and 16 μM. We set four wells for cells in each group which were incubated with each concentration of the compounds, and the cells were cultured for 48 h or 72 h. At 48 h or 72 h, 10 μl of the 5 mM MTT were added in cells and 100 μl of cell lysis buffer were added 4–6 h later. After added cell lysis buffer for an hour, microplate autoreader were used for measuring optical density (OD) of cells at 570 nm, and the ratio of OD in each group and that of DMSO group were valued as cell survival rates of each group.

O=C(C1CCCCN1)N1CCN(c2nc(Cl)cc(NCc3ccc(Cl)cc3Cl)n2)CC1 (centres unmarked) [compound 8a, {4-[4-Chloro-6-(2,4-dichloro-benzylamino)-pyrimidin-2-yl]-piperazin-1-yl}-piperidin-2-yl-methanone]
inhibition of chemotaxis of HEK293-CXCR3 to its ligand (CXCR3): few influence
inhibition of chemotaxis of HEK293-CCR1 to its ligand (CCR1): few influence
chemotaxis effect of the compound on HEK293-CXCR1 (CXCR1): didn’t exert chemotaxis effects
chemotaxis effect of the compound on HEK293-CCR3 (CCR3): didn’t exert chemotaxis effects
cytotoxicity (MTT) (HEK293-CCR4 cells): no obvious cytotoxicity
